The term EC50 denotes the concentration needed to bring the measured effect to its halfway point.

Where only a bound is given, the exact number is not on record here.

Consider 19 compounds from US12577206B2 (BRISTOL-MYERS SQUIBB COMPANY, priority 2020, dated 2026).

The target in experiment [1] is T1, human FPR2 (Homo sapiens, UniProt P25090).
T1 sequence (P25090 1-351): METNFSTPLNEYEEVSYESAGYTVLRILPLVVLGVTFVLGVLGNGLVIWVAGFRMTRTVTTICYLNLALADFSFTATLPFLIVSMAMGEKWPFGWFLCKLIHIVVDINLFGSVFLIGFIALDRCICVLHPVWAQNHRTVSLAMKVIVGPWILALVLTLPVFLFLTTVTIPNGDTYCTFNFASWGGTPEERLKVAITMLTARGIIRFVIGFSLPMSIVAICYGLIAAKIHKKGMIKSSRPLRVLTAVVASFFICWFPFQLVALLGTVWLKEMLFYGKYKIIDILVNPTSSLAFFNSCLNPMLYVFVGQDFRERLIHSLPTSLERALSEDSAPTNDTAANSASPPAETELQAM
Put plainly: FPR2 cyclic adenosine monophosphate (cAMP) assay. Format: cell-based. The note with it: CHO cells overexpressing human FPR2; forskolin 5 μM; inhibition of cAMP production; HTRF; read-out: hFPR2 cAMP2 EC50. Summed up:
(§1)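 Inhibition of forskolin-stimulated cAMP (final forskolin 5 μM for FPR2, 10 μM for FPR1; IBMX 200 μM) was measured by HTRF in recombinant CHO cells after 30 min at room temperature.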
(In general: Cyclic AMP is a second messenger, typically raised through Gs and lowered through Gi signalling.)

The target of experiment [2] is T2, human FPR1 (Homo sapiens, UniProt P21462).
T2 sequence (P21462 1-350): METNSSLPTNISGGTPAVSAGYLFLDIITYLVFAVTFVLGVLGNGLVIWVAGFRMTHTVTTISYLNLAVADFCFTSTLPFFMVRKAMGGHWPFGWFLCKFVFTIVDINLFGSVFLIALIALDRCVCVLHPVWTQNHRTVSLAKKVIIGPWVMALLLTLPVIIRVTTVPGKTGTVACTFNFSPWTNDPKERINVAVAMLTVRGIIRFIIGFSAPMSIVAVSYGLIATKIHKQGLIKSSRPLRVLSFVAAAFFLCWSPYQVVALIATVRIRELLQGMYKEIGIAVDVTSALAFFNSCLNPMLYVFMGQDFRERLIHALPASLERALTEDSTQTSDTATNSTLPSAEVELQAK
As to the kind of experiment: FPR1 cyclic adenosine monophosphate (cAMP) assay. Type of experiment: cell-based. The note with it: CHO cells overexpressing human FPR1; forskolin 10 μM; inhibition of cAMP production; HTRF; read-out: hFPR1 cAMP2 EC50. In short, it runs like this: as §1

Take `CCc1cccnc1-n1c(=O)c(NC(=O)c2ccc(OC(F)F)cc2)c(-c2c(F)cc(OC)cc2F)n1C` [Example 166, N-[5-(2,6-difluoro-4-methoxyphenyl)-2-(3-ethylpyridin-2-yl)-1-methyl-3-oxo-2,3-dihydro-1H-pyrazol-4-yl]-4-(difluoromethoxy)benzamide]: the EC50 was 20 nM in experiment [1] and above 10000 nM in experiment [2].

In the case of `COc1cc(F)c(-c2c(NC(=O)c3ccc(OC(F)(F)F)cn3)c(=O)n(-c3ccccc3)n2C)c(F)c1` [Example 24, N-[5-(2,6-difluoro-4-methoxyphenyl)-1-methyl-3-oxo-2-phenyl-2,3-dihydro-1H-pyrazol-4-yl]-5-(trifluoromethoxy)pyridine-2-carboxamide], the EC50 in experiment [1] was 220 nM; in experiment [2], above 10000 nM.

Take `COc1cc(N2CC[C@H](O)C2)nc(-n2c(=O)c(NC(=O)c3ccc(OC(F)F)cc3)c(-c3c(F)cc(OC)cc3F)n2C)c1` [Example 97, N-[5-(2,6-difluoro-4-methoxyphenyl)-2-{6-[(3S)-3-hydroxypyrrolidin-1-yl]-4-methoxypyridin-2-yl}-1-methyl-3-oxo-2,3-dihydro-1H-pyrazol-4-yl]-4-(difluoromethoxy)benzamide]: the half-maximal effective concentration (EC50) in experiment [1] worked out at 3 nM; in experiment [2], 3400 nM.

Consider `COc1cc(F)c(-c2c(NC(=O)c3ccc(OC(F)F)cc3)c(=O)n(-c3nc(N4CCN(CC(F)F)CC4)ccc3C(F)(F)F)n2C)c(F)c1` [Example 270, N-[5-(2,6-difluoro-4-methoxyphenyl)-2-{6-[4-(2,2-difluoroethyl)piperazin-1-yl]-3-(trifluoromethyl)pyridin-2-yl}-1-methyl-3-oxo-2,3-dihydro-1H-pyrazol-4-yl]-4-(difluoromethoxy)benzamide], for which the EC50 was 6 nM in experiment [1] and 3400 nM in experiment [2].

Regarding `COc1cc(F)c(-c2c(NC(=O)c3ccc(OC(F)F)cc3)c(=O)n(-c3nc(NC[C@H](C)O)ccc3C(F)(F)F)n2C)c(F)c1` [Example 272, N-[5-(2,6-difluoro-4-methoxyphenyl)-2-(6-{[(2S)-2-hydroxypropyl]amino}-3-(trifluoromethyl)pyridin-2-yl)-1-methyl-3-oxo-2,3-dihydro-1H-pyrazol-4-yl]-4-(difluoromethoxy)benzamide], the EC50 is 1 nM in experiment [1] and above 10000 nM in experiment [2].

With `COc1cc(F)c(-c2c(NC(=O)c3ccc(OC(F)F)cc3)c(=O)n(-c3cc(C#N)cc(C(C)C)c3)n2C)c(F)c1` [Example 119, N-{2-[3-cyano-5-(propan-2-yl)phenyl]-5-(2,6-difluoro-4-methoxyphenyl)-1-methyl-3-oxo-2,3-dihydro-1H-pyrazol-4-yl}-4-(difluoromethoxy)benzamide], the EC50 in experiment [1] was 8 nM; in experiment [2] it was 65 nM.

In the case of `COc1cc(F)cc(-n2c(=O)c(NC(=O)c3ccc(OC(F)F)cc3)c(-c3c(F)cc(OC)cc3F)n2C)c1` [Example 132, N-[5-(2,6-difluoro-4-methoxyphenyl)-2-(3-fluoro-5-methoxyphenyl)-1-methyl-3-oxo-2,3-dihydro-1H-pyrazol-4-yl]-4-(difluoromethoxy)benzamide], the 50% effective concentration (EC50) in experiment [1] came out at 6 nM; in experiment [2], 83 nM.

As to `COc1cc(F)c(-c2c(NC(=O)c3ccc(OC(F)F)cc3)c(=O)n(-c3cccc(OC)c3C#N)n2C)c(F)c1` [Example 184, N-[2-(2-cyano-3-methoxyphenyl)-5-(2,6-difluoro-4-methoxyphenyl)-1-methyl-3-oxo-2,3-dihydro-1H-pyrazol-4-yl]-4-(difluoromethoxy)benzamide], the results for the concentration giving a half-maximal response (EC50) in experiment [1] and in experiment [2] were 8 nM and above 10000 nM, respectively.

As to `COc1cc(F)c(-c2c(NC(=O)c3ccc(OC(F)F)cc3)c(=O)n(-c3cccc(-n4ccc(C)n4)n3)n2C)c(F)c1` [Example 69, N-[5-(2,6-difluoro-4-methoxyphenyl)-1-methyl-2-[6-(3-methyl-1H-pyrazol-1-yl)pyridin-2-yl]-3-oxo-2,3-dihydro-1H-pyrazol-4-yl]-4-(difluoromethoxy)benzamide], the EC50 in experiment [1] and in experiment [2] was 5 nM in each case.

On to `COc1cc(C2CCCN(CCO)C2)nc(-n2c(=O)c(NC(=O)c3ccc(OC(F)F)cc3)c(-c3c(F)cc(OC)cc3F)n2C)c1` (centres unmarked) [Example 338, N-(5-(2,6-Difluoro-4-methoxyphenyl)-2-(6-(1-(2-hydroxyethyl)piperidin-3-yl)-4-methoxypyridin-2-yl)-1-methyl-3-oxo-2,3-dihydro-1H-pyrazol-4-yl)-4-(difluoromethoxy)benzamide], for which the values for the half-maximal effective concentration (EC50) in experiment [1] and in experiment [2] were 2 nM and above 10000 nM, respectively.

Take `COc1cc(F)c(-c2c(NC(=O)c3ccc(OC(F)F)cc3)c(=O)n(-c3nc(N4CCN(CC(F)(F)F)CC4)ccc3Cl)n2C)c(F)c1` [Example 239, N-(2-{3-chloro-6-[4-(2,2,2-trifluoroethyl)piperazin-1-yl]pyridin-2-yl}-5-(2,6-difluoro-4-methoxyphenyl)-1-methyl-3-oxo-2,3-dihydro-1H-pyrazol-4-yl)-4-(difluoromethoxy)benzamide]: the figures for the concentration giving a half-maximal response (EC50) in experiment [1] and in experiment [2] were 5 nM and 2700 nM, respectively.

`COc1cc(F)c(-c2c(NC(=O)c3ccc(OC(F)F)cc3)c(=O)n(-c3cccnc3OC)n2C)c(F)c1` [Example 330, N-(5-(2,6-Difluoro-4-methoxyphenyl)-2-(2-methoxypyridin-3-yl)-1-methyl-3-oxo-2,3-dihydro-1H-pyrazol-4-yl)-4-(difluoromethoxy)benzamide]: the results for the half-maximal effective concentration (EC50) in experiment [1] and in experiment [2] were 6 nM and above 10000 nM, respectively.

For `COc1cc(F)c(-c2c(NC(=O)c3ccc(OC(F)F)cc3)c(=O)n(-c3nc(C(F)(F)F)ccc3NCCO)n2C)c(F)c1` [Example 374, N-(5-(2,6-Difluoro-4-methoxyphenyl)-2-(3-((2-hydroxyethyl)amino)-6-(trifluoromethyl)pyridin-2-yl)-1-methyl-3-oxo-2,3-dihydro-1H-pyrazol-4-yl)-4-(difluoromethoxy)benzamide], the figures for the half-maximal effective concentration (EC50) in experiment [1] and in experiment [2] were 22 nM and 320 nM, respectively.

For `COc1cc(F)c(-c2c(NC(=O)c3ccc(OC(F)F)cc3)c(=O)n(-c3nc(NCC4CC4)ccc3C(F)(F)F)n2C)c(F)c1` [Example 264, N-(2-{6-[(cyclopropylmethyl)amino]-3-(trifluoromethyl)pyridin-2-yl}-5-(2,6-difluoro-4-methoxyphenyl)-1-methyl-3-oxo-2,3-dihydro-1H-pyrazol-4-yl)-4-(difluoromethoxy)benzamide], the half-maximal effective concentration (EC50) was 2 nM in experiment [1] and above 5000 nM in experiment [2].

`COc1ccc(-c2c(NC(=O)c3ccc(OC(F)F)cc3)c(=O)n(-c3ccccc3)n2C)cc1` [Example 7, 4-(difluoromethoxy)-N-[5-(4-methoxyphenyl)-1-methyl-3-oxo-2-phenyl-2,3-dihydro-1H-pyrazol-4-yl]benzamide]: the EC50 stood at 10 nM in experiment [1] and 300 nM in experiment [2].

`CCOc1cc(-n2c(=O)c(NC(=O)c3ccc(OC(F)F)cc3)c(-c3c(F)cc(OC)cc3F)n2C)cc(C(F)(F)F)c1` [Example 122, N-[5-(2,6-difluoro-4-methoxyphenyl)-2-[3-ethoxy-5-(trifluoromethyl)phenyl]-1-methyl-3-oxo-2,3-dihydro-1H-pyrazol-4-yl]-4-(difluoromethoxy)benzamide]: the concentration for a half-maximal effect (EC50) was 21 nM in experiment [1] and above 10000 nM in experiment [2].

Take `COc1cc(O)c(-c2c(NC(=O)c3ccc(OC(F)F)cc3)c(=O)n(-c3nc(NCCO)ccc3C(F)(F)F)n2C)c(F)c1` [Example 230, 4-(difluoromethoxy)-N-[5-(2-fluoro-6-hydroxy-4-methoxyphenyl)-2-{6-[(2-hydroxyethyl)amino]-3-(trifluoromethyl)pyridin-2-yl}-1-methyl-3-oxo-2,3-dihydro-1H-pyrazol-4-yl]benzamide]: the figures for the EC50 in experiment [1] and in experiment [2] were 10 nM and above 10000 nM, respectively.

`COc1cc(F)c(-c2c(NC(=O)c3ccc(OC(F)F)cc3)c(=O)n(-c3nc(N4CCC(C(N)=O)C4)ccc3C(F)(F)F)n2C)c(F)c1` (centres unmarked) [Example 305, 1-{6-[3-(2,6-difluoro-4-methoxyphenyl)-4-[4-(difluoromethoxy)benzamido]-2-methyl-5-oxo-2,5-dihydro-1H-pyrazol-1-yl]-5-(trifluoromethyl)pyridin-2-yl}pyrrolidine-3-carboxamide]: the EC50 in experiment [1] was found to be 2 nM; in experiment [2] it was 3900 nM.

On to `COc1cc(F)c(-c2c(NC(=O)c3ccc(OC(F)F)cc3)c(=O)n(-c3cccc(C4CC4)n3)n2C)c(F)c1` [Example 45, N-[2-(6-cyclopropylpyridin-2-yl)-5-(2,6-difluoro-4-methoxyphenyl)-1-methyl-3-oxo-2,3-dihydro-1H-pyrazol-4-yl]-4-(difluoromethoxy)benzamide], for which the figures for the EC50 in experiment [1] and in experiment [2] were 6 nM and 2800 nM, respectively.
